Measured values: US10519177B2, “Heterocyclic compounds and uses thereof” (Plexxikon Inc., priority 2013, dated 2019)
Read-outs that look alike come from different tables or passages of the source.

How the values were obtained:
[1] = test system: bromodomain; assay: at least one of the bromodomain cell assays of Example 57; format: cell-based; conditions: read-out: IC50 in at least one of the bromodomain cell assays
[2] = test system: MV-4-11 cells; assay: Oncology cell growth assay MV-4-11 (CellTiter Glo); format: cell-based
Outline: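 MV-4-11 AML cells (MLL-AF4), 3000 per well, exposed to 8-point 1:3 compound titration from 10 μM top concentration (0.2% DMSO) for 72 h. Viability by CellTiter Glo luminescence, normalized to DMSO controls; pIC50 from four-parameter curve fit.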

[3] = target: BRD4-BD12 (1-477) (Homo sapiens (Human), UniProt O60885); assay: Alphascreen binding assay BRD4-BD12; conditions: BRD4(1 2) H4; read-out: Biochemical activity (IC50 μM) BRD4(1 2) H4
Outline: (§1)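 First, compound was preincubated 1 h at room temperature with the His-tagged BRD4 protein (BD1 44-164 or tandem BD12 1-477) and acetylated H4 peptide. Next, donor and acceptor beads were added at 7.5 μg/ml final. After 30 min, AlphaScreen emission was recorded.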

[4] = target: BRD4-BD1 (44-164) (Homo sapiens (Human), UniProt O60885); assay: Alphascreen binding assay BRD4-BD1; conditions: BRD4(1) H4; read-out: Biochemical activity (IC50 μM) BRD4(1) H4
Outline: as §1

[5] = at least one of the bromodomain cell assays described in Example 57
[6] = Homo sapiens, MV4-11, 72 h; read-out: Cell activity (IC50 μM) MV-4-11 3d-Growth

SMILES	IC50 [1, 5] [nM]	IC50 [2, 6] [µM]	IC50 [3] [µM]	IC50 [4] [µM]	IC50 [1] [nM]	IC50 ([2]; Homo sapiens, MV4-11, 72 h, read-out: Cell activity (IC50 μM) MV-4-11 3d-Growth) [µM]
Cc1noc(C)c1-c1cnc2ccn(CC3CCC(F)(F)CC3)c2c1 [P-0282, 4-[1-[(4,4-difluorocyclohexyl)methyl]pyrrolo[3,2-b]pyridin-6-yl]-3,5-dimethyl-isoxazole]	< 10000	< 1	1 to 10	< 1	–	–
[2H]C([2H])(C1CCC(F)(F)CC1)n1cc(I)c2ncc(-c3c(C)noc3C)cc21 [P-0262, 4-[1-[dideuterio-(4,4-difluorocyclohexyl)methyl]-3-iodo-pyrrolo[3,2-b]pyridin-6-yl]-3,5-dimethyl-isoxazole]	< 10000	< 1	< 1	< 1	–	–
Cc1noc(C)c1-c1cnc2c(-c3c(C)nn(C)c3C)cn(C(C)c3ccccc3)c2c1 (stereo not shown) [P-0300, 3,5-dimethyl-4-[1-(1-phenylethyl)-3-(1,3,5-trimethylpyrazol-4-yl)pyrrolo[3,2-b]pyridin-6-yl]isoxazole]	< 10000	< 1	< 1	< 1	–	–
[2H]C([2H])(C1CC(F)(F)C1)n1cc(-c2cnn(CC(F)(F)F)c2)c2ncc(-c3c(C)noc3C)cc21 [P-0257, 4-[1-[dideuterio-(3,3-difluorocyclobutyl)methyl]-3-[1-(2,2,2-trifluoroethyl)pyrazol-4-yl]pyrrolo[3,2-b]pyridin-6-yl]-3,5-dimethyl-isoxazole]	< 10000	< 1	< 1	< 1	–	–
Cc1noc(C)c1-c1cnc2c(-c3ccc(N)nc3)cn(C(C)c3ccccc3)c2c1 (stereo not shown) [P-0276, 5-[6-(3,5-dimethylisoxazol-4-yl)-1-(1-phenylethyl)pyrrolo[3,2-b]pyridin-3-yl]pyridin-2-amine]	< 10000	< 1	< 1	< 1	–	–
Cc1noc(C)c1-c1cnc2c(-c3ccc(Cl)cc3)cn(C(C)c3ccccc3)c2c1 (stereo not shown) [P-0269, 4-[3-(4-chlorophenyl)-1-(1-phenylethyl)pyrrolo[3,2-b]pyridin-6-yl]-3,5-dimethyl-isoxazole]	< 10000	1 to 10	< 1	< 1	–	–
COc1ccc(-c2cnc3ccn(CC4CCC(F)(F)CC4)c3c2)cn1 [P-0312, 1-((4,4-difluorocyclohexyl)methyl]-6-(6-methoxy-3-pyridyl)pyrrolo[3,2-b]pyridine]	< 10000	10 to 200	10 to 200	1 to 10	–	–
Cc1noc(N)c1-c1cnc2ccn(CC3CCC(F)(F)CC3)c2c1 [P-0328, 4-[1-[(4,4-difluorocyclohexyl)methyl]pyrrolo[3,2-b]pyridin-6-yl]-3-methyl-isoxazol-5-amine]	< 10000	1 to 10	< 1	< 1	–	–
Cc1noc(C)c1-c1cnc2c(C#C[Si](C)(C)C)cn(C(C)c3ccccc3)c2c1 (stereo not shown) [P-0288, 2-[6-(3,5-dimethylisoxazol-4-yl)-1-(1-phenylethyl)pyrrolo[3,2-b]pyridin-3-yl]ethynyl-trimethyl-silane]	–	–	< 1	< 1	< 10000	< 1
Cc1noc(C)c1-c1cnc2c(-c3cnn(CCC#N)c3)cn(CC3CCC(F)(F)CC3)c2c1 [P-0298, 3-[4-[1-[(4,4-difluorocyclohexyl)methyl]-6-(3,5-dimethylisoxazol-4-yl)pyrrolo[3,2-b]pyridin-3-yl]pyrazol-1-yl]propanenitrile]	< 10000	< 1	< 1	< 1	–	–
Cc1nnn(C)c1-c1cnc2c(-c3cnn(CC(F)(F)F)c3)cn(CC3(F)CCC(F)(F)CC3)c2c1 [P-0372, 6-(3,5-dimethyltriazol-4-yl)-1-[(1,4,4-trifluorocyclohexyl)methyl]-3-[1-(2,2,2-trifluoroethyl)pyrazol-4-yl]pyrrolo[3,2-b]pyridine]	< 10000	< 1	< 1	< 1	–	–
Cc1noc(C)c1-c1cnc2c(Br)cn(C(CC#N)C3CCCC3)c2c1 (stereo not shown) [P-0280, 3-[3-bromo-6-(3,5-dimethylisoxazol-4-yl)pyrrolo[3,2-b]pyridin-1-yl]-3-cyclopentyl-propanenitrile]	< 10000	< 1	< 1	< 1	–	–
Cc1noc(C)c1-c1cnc2c(-c3cnn(C(F)F)c3)cn(C(CC#N)C3CCOCC3)c2c1 (stereo not shown) [P-0314, 3-[3-[1-(difluoromethyl)pyrazol-4-yl]-6-(3,5-dimethylisoxazol-4-yl)pyrrolo[3,2-b]pyridin-1-yl]-3-tetrahydropyran-4-yl-propanenitrile]	< 10000	< 1	< 1	< 1	–	–
[2H]C([2H])(C1CCC(F)(F)CC1)n1cc(C#CCO)c2ncc(-c3c(C)noc3C)cc21 [P-0370, 3-[1-[dideuterio-(4,4-difluorocyclohexyl)methyl]-6-(3,5-dimethylisoxazol-4-yl)pyrrolo[3,2-b]pyridin-3-yl]prop-2-yn-1-ol]	< 10000	< 1	< 1	< 1	–	–
Cc1nnn(C)c1-c1cnc2c(-c3cnn(CC(F)(F)F)c3)cn(CC3CCC(F)(F)CC3)c2c1 [P-0311, 1-[(4,4-difluorocyclohexyl)methyl]-6-(3,5-dimethyltriazol-4-yl)-3-[1-(2,2,2-trifluoroethyl)pyrazol-4-yl]pyrrolo[3,2-b]pyridine]	< 10000	< 1	1 to 10	< 1	–	–
Oc1ccc(-c2cnc3ccn(CC4CCC(F)(F)CC4)c3c2)cn1 [P-0284, 5-[1-[(4,4-difluorocyclohexyl)methyl]pyrrolo[3,2-b]pyridin-6-yl]pyridin-2-ol]	< 10000	1 to 10	1 to 10	< 1	–	–
Cc1n[nH]c(C)c1-c1cn(C(C)c2ccccc2)c2cc(-c3c(C)noc3C)cnc12 (stereo not shown) [P-0287, 4-[3-(3,5-dimethyl-1H-pyrazol-4-yl)-1-(1-phenylethyl)pyrrolo[3,2-b]pyridin-6-yl]-3,5-dimethyl-isoxazole]	< 10000	< 1	< 1	< 1	–	–
Cc1nnn(C)c1-c1cnc2c(-c3cnn(C)c3)cn(CC3CCC(F)(F)CC3)c2c1 [P-0310, 1-[(4,4-difluorocyclohexyl)methyl]-6-(3,5-dimethyltriazol-4-yl)-3-(1-methylpyrazol-4-yl)pyrrolo[3,2-b]pyridine]	< 10000	< 1	< 1	< 1	–	–
Cc1noc(C)c1-c1cnc2c(-c3ccc(C(=O)O)cc3)cn(S(=O)(=O)c3ccccc3)c2c1 [P-0371, 4-[1-(benzenesulfonyl)-6-(3,5-dimethylisoxazol-4-yl)pyrrolo[3,2-b]pyridin-3-yl]benzoic acid]	< 10000	< 1	< 1	< 1	–	–
Cc1nc(C)c(-c2cnc3ccn(CC4CCC(F)(F)CC4)c3c2)s1 [P-0294, 5-[1-[(4,4-difluorocyclohexyl)methyl]pyrrolo[3,2-b]pyridin-6-yl]-2,4-dimethyl-thiazole]	< 10000	1 to 10	< 1	10 to 200	–	–
Cc1noc(C)c1-c1cnc2c(Cl)cn(C(CC#N)C3CC3)c2c1 (stereo not shown) [P-0307, 3-[3-chloro-6-(3,5-dimethylisoxazol-4-yl)pyrrolo[3,2-b]pyridin-1-yl]-3-cyclopropyl-propanenitrile]	< 10000	1 to 10	< 1	< 1	–	–
Cc1onc(NC(=O)OC(C)(C)C)c1-c1cnc2ccn(CC3CCC(F)(F)CC3)c2c1 [P-0323, tert-butyl N-[4-[1-[(4,4-difluorocyclohexyl)methyl]pyrrolo[3,2-b]pyridin-6-yl]-5-methyl-isoxazol-3-yl]carbamate]	< 10000	10 to 200	< 1	10 to 200	–	–
Cc1noc(C)c1-c1cnc2c(Br)cn(CC3CCC(F)(F)CC3)c2c1 [P-0281, 4-[3-bromo-1-[(4,4-difluorocyclohexyl)methyl]pyrrolo[3,2-b]pyridin-6-yl]-3,5-dimethyl-isoxazole]	< 10000	< 1	< 1	< 1	–	–
Cc1noc(C)c1-c1cnc2c(C#CCO)cn(C(C)c3ccccc3)c2c1 (stereo not shown) [P-0302, 3-[6-(3,5-dimethylisoxazol-4-yl)-1-(1-phenylethyl)pyrrolo[3,2-b]pyridin-3-yl]prop-2-yn-1-ol]	< 10000	< 1	< 1	< 1	–	–
Cc1noc(C)c1-c1cnc2c(-c3cnc(N)nc3)cn(C(C)c3ccccc3)c2c1 (stereo not shown) [P-0277, 5-[6-(3,5-dimethylisoxazol-4-yl)-1-(1-phenylethyl)pyrrolo[3,2-b]pyridin-3-yl]pyrimidin-2-amine]	< 10000	< 1	< 1	< 1	–	–
